Reference: US20220388964A1 (HiberCell, Inc., priority 2019, published 2022)

These compounds were tested against GCN2 (Homo sapiens, UniProt Q9P2K8) (assay: TR-FRET biochemical assay for inhibition of GCN2 (Example 108, for Examples 73-105)).
Sequence of GCN2 (Q9P2K8 whole entry): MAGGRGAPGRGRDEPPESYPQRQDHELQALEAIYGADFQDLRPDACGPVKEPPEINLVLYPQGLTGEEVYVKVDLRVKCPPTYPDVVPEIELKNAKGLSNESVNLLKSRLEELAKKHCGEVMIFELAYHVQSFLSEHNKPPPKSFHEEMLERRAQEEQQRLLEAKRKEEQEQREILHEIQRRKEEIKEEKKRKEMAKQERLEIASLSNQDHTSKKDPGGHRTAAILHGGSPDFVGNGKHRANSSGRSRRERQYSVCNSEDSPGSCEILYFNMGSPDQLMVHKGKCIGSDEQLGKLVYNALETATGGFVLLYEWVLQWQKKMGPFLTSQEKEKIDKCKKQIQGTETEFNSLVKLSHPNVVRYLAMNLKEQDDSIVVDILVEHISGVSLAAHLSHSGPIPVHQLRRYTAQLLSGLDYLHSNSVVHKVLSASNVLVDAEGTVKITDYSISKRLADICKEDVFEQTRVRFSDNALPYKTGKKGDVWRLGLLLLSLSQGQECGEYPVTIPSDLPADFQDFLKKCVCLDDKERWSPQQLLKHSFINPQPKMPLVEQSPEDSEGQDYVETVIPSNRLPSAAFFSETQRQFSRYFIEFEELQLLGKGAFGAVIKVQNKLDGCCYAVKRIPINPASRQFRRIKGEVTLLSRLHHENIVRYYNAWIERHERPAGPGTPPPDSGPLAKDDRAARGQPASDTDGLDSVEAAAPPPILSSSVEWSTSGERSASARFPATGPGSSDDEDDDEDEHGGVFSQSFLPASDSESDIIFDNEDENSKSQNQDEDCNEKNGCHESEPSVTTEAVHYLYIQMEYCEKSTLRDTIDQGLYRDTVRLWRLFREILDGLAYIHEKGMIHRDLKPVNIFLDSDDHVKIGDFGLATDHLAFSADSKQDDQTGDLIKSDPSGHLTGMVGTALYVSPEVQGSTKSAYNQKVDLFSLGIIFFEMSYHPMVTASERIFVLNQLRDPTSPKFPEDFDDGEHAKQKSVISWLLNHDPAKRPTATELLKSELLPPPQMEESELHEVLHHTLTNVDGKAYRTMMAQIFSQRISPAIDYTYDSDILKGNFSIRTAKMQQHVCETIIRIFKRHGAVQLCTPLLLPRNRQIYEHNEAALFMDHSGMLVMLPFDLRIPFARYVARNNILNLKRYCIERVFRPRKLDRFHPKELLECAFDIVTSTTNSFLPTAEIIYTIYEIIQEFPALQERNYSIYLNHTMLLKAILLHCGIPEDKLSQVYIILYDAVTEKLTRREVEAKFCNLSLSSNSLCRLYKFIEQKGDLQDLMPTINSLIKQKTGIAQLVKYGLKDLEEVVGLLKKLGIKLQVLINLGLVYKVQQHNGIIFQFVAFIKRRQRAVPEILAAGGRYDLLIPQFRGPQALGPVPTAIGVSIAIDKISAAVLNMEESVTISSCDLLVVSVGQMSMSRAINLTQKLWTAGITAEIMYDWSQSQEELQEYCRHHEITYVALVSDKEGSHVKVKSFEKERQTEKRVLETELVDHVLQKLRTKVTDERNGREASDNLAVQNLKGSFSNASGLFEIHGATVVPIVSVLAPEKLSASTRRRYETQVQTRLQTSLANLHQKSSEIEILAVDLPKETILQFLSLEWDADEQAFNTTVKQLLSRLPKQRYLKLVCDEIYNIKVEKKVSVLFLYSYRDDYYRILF

IC50 | Compound
< 500 nM | COc1ncc(Cl)cc1S(=O)(=O)Nc1ccc(F)c(-c2ccc3c(C(=O)NCCN4CCCC4=O)n[nH]c3c2F)c1F [Example 99, 6-[3-(5-Chloro-2-methoxypyridine-3-sulfonamido)-2,6-difluorophenyl]-7-fluoro-N-[2-(2-oxopyrrolidin-1-yl)ethyl]-1H-indazole-3-carboxamide]
< 500 nM | COc1ncc(Cl)cc1S(=O)(=O)Nc1ccc(F)c(-c2ccc3c(C(=O)NCCN4CCCC4)n[nH]c3c2F)c1F [Example 83, 6-[3-(5-chloro-2-methoxypyridine-3-sulfonamido)-2,6-difluorophenyl]-7-fluoro-N-[2-(pyrrolidin-1-yl)ethyl]-1H-indazole-3-carboxamide]
< 500 nM | COc1ncc(Cl)cc1S(=O)(=O)Nc1ccc(F)c(-c2ccc3c(C(=O)NC4CCCC(N)C4)n[nH]c3c2F)c1F (stereo not drawn) [Example 98, N-(3-Aminocyclohexyl)-6-[3-(5-chloro-2-methoxypyridine-3-sulfonamido)-2,6-difluorophenyl]-7-fluoro-1H-indazole-3-carboxamide]
< 500 nM | COc1ncc(Cl)cc1S(=O)(=O)Nc1ccc(F)c(-c2ccc3c(C(=O)NCC4CC4)n[nH]c3c2F)c1F [Example 85, 6-[3-(5-Chloro-2-methoxypyridine-3-sulfonamido)-2,6-difluorophenyl]-N-(cyclopropylmethyl)-7-fluoro-1H-indazole-3-carboxamide]
2500 to 10000 nM | CNC(=O)c1n[nH]c2c(F)c(-c3c(F)ccc(NS(=O)(=O)CC4CCC(O)C4)c3F)ccc12 (mixture of isomers) [Example 78, 6-[2,6-difluoro-3-[(3-hydroxycyclopentyl)methanesulfonamido]phenyl]-7-fluoro-N-methyl-1H-indazole-3-carboxamide]
< 500 nM | COc1ncc(Cl)cc1S(=O)(=O)Nc1ccc(F)c(-c2ccc3c(C(=O)NC4CCC(=O)CC4)n[nH]c3c2F)c1F [Example 96, 6-[3-(5-Chloro-2-methoxypyridine-3-sulfonamido)-2,6-difluorophenyl]-7-fluoro-N-(4-oxocyclohexyl)-1H-indazole-3-carboxamide]
2500 to 10000 nM | CNC(=O)c1n[nH]c2c(F)c(-c3c(F)ccc(NS(=O)(=O)C4CCOCC4)c3F)ccc12 [Example 75, 6-[2,6-difluoro-3-(oxane-4-sulfonamido)phenyl]-7-fluoro-N-methyl-1H-indazole-3-carboxamide]
< 500 nM | COc1ncc(Cl)cc1S(=O)(=O)Nc1ccc(F)c(-c2ccc3c(C(=O)NCCS(C)(=O)=O)n[nH]c3c2F)c1F [Example 84, 6-[3-(5-Chloro-2-methoxypyridine-3-sulfonamido)-2,6-difluorophenyl]-7-fluoro-N-(2-methanesulfonylethyl)-1H-indazole-3-carboxamide]
< 500 nM | COc1ncc(Cl)cc1S(=O)(=O)Nc1ccc(F)c(-c2ccc3c(C(=O)NCC(F)(F)F)n[nH]c3c2F)c1F [Example 90, 6-[3-(5-Chloro-2-methoxypyridine-3-sulfonamido)-2,6-difluorophenyl]-7-fluoro-N-(2,2,2-trifluoroethyl)-1H-indazole-3-carboxamide]
2500 to 10000 nM | CNC(=O)c1n[nH]c2c(F)c(-c3c(F)ccc(NS(=O)(=O)C4CCCN(C)C4)c3F)ccc12 (stereo not drawn) [Example 77, 6-[2,6-difluoro-3-(1-methylpiperidine-3-sulfonamido)phenyl]-7-fluoro-N-methyl-1H-indazole-3-carboxamide]
< 500 nM | COc1ncc(Cl)cc1S(=O)(=O)Nc1ccc(F)c(-c2ccc3c(C(=O)NC(C#N)C4CC4)n[nH]c3c2F)c1F (stereo not drawn) [Example 91, 6-[3-(5-Chloro-2-methoxypyridine-3-sulfonamido)-2,6-difluorophenyl]-N-[cyano(cyclopropyl)methyl]-7-fluoro-1H-indazole-3-carboxamide]
< 500 nM | COc1ncc(Cl)cc1S(=O)(=O)Nc1ccc(F)c(-c2ccc3c(C(=O)NC4CCCC4O)n[nH]c3c2F)c1F (stereo not drawn) [Example 87, 6-[3-(5-Chloro-2-methoxypyridine-3-sulfonamido)-2,6-difluorophenyl]-7-fluoro-N-(2-hydroxycyclopentyl)-1H-indazole-3-carboxamide]
< 500 nM | COc1ncc(Cl)cc1S(=O)(=O)Nc1ccc(F)c(-c2ccc3c(C(=O)NCC4CCCNC4)n[nH]c3c2F)c1F (stereo not drawn) [Example 93, 6-[3-(5-Chloro-2-methoxypyridine-3-sulfonamido)-2,6-difluorophenyl]-7-fluoro-N-(piperidin-3-ylmethyl)-1H-indazole-3-carboxamide]
2500 to 10000 nM | CNC(=O)c1n[nH]c2c(F)c(-c3c(F)ccc(NS(=O)(=O)CC4CCCC4)c3F)ccc12 [Example 74, 6-[3-(cyclopentylmethanesulfonamido)-2,6-difluorophenyl]-7-fluoro-N-methyl-1H-indazole-3-carboxamide]
< 500 nM | COc1ncc(Cl)cc1S(=O)(=O)Nc1ccc(F)c(-c2ccc3c(C(=O)NCCN4CCOCC4)n[nH]c3c2F)c1F [Example 86, 6-[3-(5-Chloro-2-methoxypyridine-3-sulfonamido)-2,6-difluorophenyl]-7-fluoro-N-[2-(morpholin-4-yl)ethyl]-1H-indazole-3-carboxamide]
< 500 nM | C#CCNC(=O)c1n[nH]c2c(F)c(-c3c(F)ccc(NS(=O)(=O)c4cc(Cl)cnc4OC)c3F)ccc12 [Example 92, 6-[3-(5-Chloro-2-methoxypyridine-3-sulfonamido)-2,6-difluorophenyl]-7-fluoro-N-(prop-2-yn-1-yl)-1H-indazole-3-carboxamide]
< 500 nM | CNC(=O)c1n[nH]c2c(F)c(-c3c(F)ccc(NS(=O)(=O)c4cc(F)cc5c4CCC5O)c3F)ccc12 (stereo not drawn) [Example 76, 6-[2,6-Difluoro-3-(6-fluoro-1-hydroxy-2,3-dihydro-1H-indene-4-sulfonamido)phenyl]-7-fluoro-N-methyl-1H-indazole-3-carboxamide]
< 500 nM | COc1ncc(Cl)cc1S(=O)(=O)Nc1ccc(F)c(-c2ccc3c(C(=O)NC4CCC(O)C4)n[nH]c3c2F)c1F (stereo not drawn) [Example 97, 6-[3-(5-Chloro-2-methoxypyridine-3-sulfonamido)-2,6-difluorophenyl]-7-fluoro-N-(3-hydroxycyclopentyl)-1H-indazole-3-carboxamide]
< 500 nM | C#CC(C)(C)NC(=O)c1n[nH]c2c(F)c(-c3c(F)ccc(NS(=O)(=O)c4cc(Cl)cnc4OC)c3F)ccc12 [Example 89, 6-[3-(5-Chloro-2-methoxypyridine-3-sulfonamido)-2,6-difluorophenyl]-7-fluoro-N-(2-methylbut-3-yn-2-yl)-1H-indazole-3-carboxamide]
< 500 nM | COc1ncc(Cl)cc1S(=O)(=O)Nc1ccc(F)c(-c2ccc3c(C(=O)NCC4CCOCC4)n[nH]c3c2F)c1F [Example 82]
500 to 2500 nM | COc1ncc(Cl)cc1S(=O)(=O)Nc1ccc(F)c(-c2ccc3c(C(=O)NC4CCCCC4N)n[nH]c3c2F)c1F (stereo not drawn) [Example 94, N-(2-Aminocyclohexyl)-6-[3-(5-chloro-2-methoxypyridine-3-sulfonamido)-2,6-difluorophenyl]-7-fluoro-1H-indazole-3-carboxamide]
< 500 nM | COc1ncc(Cl)cc1S(=O)(=O)Nc1ccc(F)c(-c2ccc3c(C(=O)NCC4CCN(C)C4)n[nH]c3c2F)c1F (stereo not drawn) [Example 100, 6-[3-(5-Chloro-2-methoxypyridine-3-sulfonamido)-2,6-difluorophenyl]-7-fluoro-N-[(1-methylpyrrolidin-3-yl)methyl]-1H-indazole-3-carboxamide]
< 500 nM | COc1ncc(Cl)cc1S(=O)(=O)Nc1ccc(F)c(-c2ccc3c(C(=O)NC4CCCC4)n[nH]c3c2F)c1F [Example 79, 6-[3-(5-Chloro-2-methoxypyridine-3-sulfonamido)-2,6-difluorophenyl]-N-cyclopentyl-7-fluoro-1H-indazole-3-carboxamide]
< 500 nM | COc1ncc(Cl)cc1S(=O)(=O)Nc1ccc(F)c(-c2ccc3c(C(=O)NC4CCCC(O)C4)n[nH]c3c2F)c1F (stereo not drawn) [Example 80, 6-[3-(5-Chloro-2-methoxypyridine-3-sulfonamido)-2,6-difluorophenyl]-7-fluoro-N-(3-hydroxycyclohexyl)-1H-indazole-3-carboxamide]
